One series deals with MiaPaCa-2 cells.
Experiment: not given
Conditions: not given
Consider “2-hydroxy-3-ethoxy-7-ethylcarboxyphenazine [compound 5]”, for which the “Cytotoxicity (en %)” value is “X>50%”.

In the case of “2,3-diethoxy-7-ethylcarboxyphenazine [compound 14]”, the “Cytotoxicity (en %)” value is reported as 20 > X > 10.

For “2,3-dihydroxy-7,8-diamino(Boc)phenazine [compound 13]”, the “Cytotoxicity (en %)” value is 30 >X> 25.

Consider `CCCCCCCCCCCCCCCC(=O)Oc1cc2nc3ccccc3nc2cc1OC(=O)CCCCCCCCCCCCCCC` [compound 7, 2,3-diopalmitoylphenazine], for which the “Cytotoxicity (en %)” value is 50 >X> 40.

The next series concerns MiaPaCa-2 cells. Put plainly: MTT colorimetric cytotoxicity assay on pancreatic chemoresistant cancer MiaPaCa-2 cells. Conditions: 48 hours incubation, tested concentration not stated. Background: Tetrazolium assays rely on reduction of a dye to a coloured formazan, in cell work by metabolically active cells.
As to `CCCCCCCCCCCCOc1cc2nc3ccccc3nc2cc1OCCCCCCCCCCCC` [compound 3, 2,3-didodecanoxyphenazine], the “Cytotoxicity (en %)” value is listed as “X>50%”.

For the molecule `CCCCCCCCCCCCOc1cc2nc3cc(N)c(N)cc3nc2cc1OCCCCCCCCCCCC` [compound 2, 2,3-didodecanoxy-7,8-diaminophenazine], the “Cytotoxicity (en %)” value is “X>50%”.

For the molecule `CCCCCCCCCCCCOc1cc2nc3ccc(C(=O)NCCN(C)C)cc3nc2cc1OCCCCCCCCCCCC` [compound 4, 2,3-didodecanoxy-7-dimethylaminoethylcarbamoylphenazine], the “Cytotoxicity (en %)” value was “X > 50%”.

With `CCCCCCCCCCCCOc1cc2nc3ccc(C(=O)O)cc3nc2cc1OCCCCCCCCCCCC` [compound 1, 2,3-didodecanoxy-7-carboxyphenazine], the “Cytotoxicity (en %)” value is recorded as “X>50%”.

For the origin of these results see EP2368885A1, “Derivatives of phenazine useful to treat cancer” (Université de la Méditerranée (Aix-Marseille II), priority 2010, dated 2011).
